The subject of the first experiment is HCV 1b genotype. The experiment is described as follows: HCV Replicon assay (HCV 1b genotype). Type of experiment: cell-based, Hepatitis C virus. The settings on record: HCV 1b genotype replicon; class symbol; read-out: Range (EC50 values against HCV 1b). In a few lines:
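HCV-neo replicon cells, wild-type plus lines carrying NS5A-region mutations, were exposed to compound; luciferase-reporter replicon variants were also used.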
A general note: A replicon is a self-replicating genome or part of one, used to study replication in cells.
A word on the EC50: it is the concentration needed to bring the measured effect to its halfway point. With `COC(=O)N[C@@H](C(=O)N1CCC[C@H]1c1nc(-c2ccc(COCc3cccc(-c4c[nH]c([C@@H]5CCCN5C(=O)[C@H](NC(=O)OC)c5ccccc5)n4)c3)cc2)c[nH]1)c1ccccc1` [OL-22], the 50% effective concentration (EC50) was in the range of 0.002 to 0.099 nM.

The experiment is the same for the next values; noted with them: Hepatitis C virus; HCV 1b genotype replicon; Effective 50% inhibitory concentration; read-out: 1b EC50.
In the case of `COC(=O)N[C@H](C(=O)N1CC(F)(F)C[C@H]1c1ncc(-c2ccc(C#Cc3ccc(-c4cnc([C@@H]5CC(F)(F)CN5C(=O)[C@H](NC(=O)OC)C5CCOCC5)[nH]4)cc3)cc2)[nH]1)C1CCOCC1` [Example N3, methyl ((1R)-2-((2S)-2-(5-(4-((4-(2-((2S)-4,4-difluoro-1-((2S)-2-((methoxycarbonyl)amino)-2-(tetrahydro-2H-pyran-4-yl)acetyl)pyrrolidin-2-yl)-1H-imidazol-5-yl)phenyl)ethynyl)phenyl)-1H-imidazol-2-yl)-4,4-difluoropyrrolidin-1-yl)-2-oxo-1-(tetrahydro-2H-pyran-4-yl)ethyl)carbamate], the EC50 is 0.25 nM.
The same measure, in the same setting: under `COC(=O)N[C@@H](C(=O)N1CC(F)(F)C[C@H]1c1ncc(-c2ccc(C#Cc3ccc(-c4cnc([C@@H]5CC(F)(F)CN5C(=O)[C@H](NC(=O)OC)C5CCOCC5)[nH]4)cc3)cc2)[nH]1)C1CCOCC1` [Example N4, dimethyl (ethyne-1,2-diylbis(4,1-phenylene-1H-imidazole-5,2-diyl((2S)-4,4-difluoropyrrolidine-2,1-diyl)((1R)-2-oxo-1-(tetrahydro-2H-pyran-4-yl)ethane-2,1-diyl)))biscarbamate] stands 0.18 nM; under `O=C([C@H](O)c1ccccc1)N1CCC[C@H]1c1nc(-c2ccc(COCc3ccc(-c4cnc([C@@H]5CCCN5C(=O)[C@H](O)c5ccccc5)[nH]4)cc3)cc2)c[nH]1` [OL-15, (1R)-2-((2S)-2-(4-(4-(((4-(2-((2S)-1-((2R)-2-hydroxy-2-phenylacetyl)-2-pyrrolidinyl)-1H-imidazol-5-yl)benzyl)oxy)methyl)phenyl)-1H-imidazol-2-yl)-1-pyrrolidinyl)-2-oxo-1-phenylethanol], 1.1 nM.

The experiment is the same for the next values; noted with them: Hepatitis C virus; HCV 1b genotype replicon; class symbol; read-out: Range (EC50 values against HCV 1b).
As for `COC(=O)N[C@H](C(=O)N1[C@@H]2C[C@@H]2C[C@H]1c1nc2c([nH]1)-c1ccc(C#Cc3ccc4c(c3)CCc3nc([C@@H]5C[C@H]6C[C@H]6N5C(=O)[C@@H](NC(=O)OC)C(C)C)[nH]c3-4)cc1CC2)C(C)C` [Example D-9, methyl ((1S)-1-(((1R,3S,5R)-3-(7-((2-((1R,3S,5R)-2-((2S)-2-((methoxycarbonyl)amino)-3-methylbutanoyl)-2-azabicyclo[3.1.0]hex-3-yl)-4,5-dihydro-1H-naphtho[1,2-d]imidazol-7-yl)ethynyl)-4,5-dihydro-1H-naphtho[1,2-d]imidazol-2-yl)-2-azabicyclo[3.1.0]hex-2-yl)carbonyl)-2-methylpropyl)carbamate], the EC50 lay within 0.002 to 0.099 nM.
On the same count and under the same terms, under `COC(=O)N[C@H](C(=O)N1CCC[C@H]1c1nc(-c2ccc(C#Cc3ccc(-c4ccc(-c5c[nH]c([C@@H]6CCCN6C(=O)[C@@H](NC(=O)OC)C(C)C)n5)cc4)cc3)cc2)c[nH]1)C(C)C` [Example J5, methyl ((1S)-1-(((2S)-2-(4-(4′-((4-(2-((2S)-1-((2S)-2-((methoxycarbonyl)amino)-3-methylbutanoyl)-2-pyrrolidinyl)-1H-imidazol-4-yl)phenyl)ethynyl)-4-biphenylyl)-1H-imidazol-2-yl)-1-pyrrolidinyl)carbonyl)-2-methylpropyl)carbamate] stands 0.002 to 0.099 nM; under `COC(=O)N[C@H](C(=O)N1[C@@H](C)CC[C@H]1c1nc(-c2ccc(C#Cc3ccc(-c4c[nH]c([C@@H]5CC[C@H](C)N5C(=O)[C@@H](NC(=O)OC)C5CCOCC5)n4)cc3)cc2)c[nH]1)C1CCOCC1` [Example M12, dimethyl (1,2-ethynediylbis(4,1-phenylene-1H-imidazole-4,2-diyl((2S,5S)-5-methyl-2,1-pyrrolidinediyl)((1S)-2-oxo-1-(tetrahydro-2H-pyran-4-yl)-2,1-ethanediyl)))biscarbamate], 0.002 to 0.099 nM.
On the same count and under the same terms, as for `COC(=O)N[C@@H](C(=O)N1CCC[C@H]1c1ncc(-c2ccc(C#Cc3ccc4c(ccc5nc([C@@H]6CCCN6C(=O)[C@H](NC(=O)OC)c6ccccc6)[nH]c54)c3)cc2)[nH]1)c1ccccc1` [Example D-5, methyl ((1R)-2-((2S)-2-(7-((4-(2-((2S)-1-((2R)-2-((methoxycarbonyl)amino)-2-phenylacetyl)-2-pyrrolidinyl)-1H-imidazol-4-yl)phenyl)ethynyl)-1H-naphtho[1,2-d]imidazol-2-yl)-1-pyrrolidinyl)-2-oxo-1-phenylethyl)carbamate], the figure is 0.002 to 0.099 nM.
As to `CCNC(=O)N[C@@H](C(=O)N1CCC[C@H]1c1nc(-c2ccc(CCc3ccc(-c4c[nH]c([C@@H]5CCCN5C(=O)[C@H](NC(=O)NCC)c5ccccc5)n4)cc3)cc2)c[nH]1)c1ccccc1` [OL-12, N′,N′″-(1,2-ethanediylbis(4,1-phenylene-1H-imidazole-4,2-diyl(2S)-2,1-pyrrolidinediyl((1R)-2-oxo-1-phenyl-2,1-ethanediyl)))bis(1-ethylurea)], the 50% effective concentration (EC50) fell in the range of 0.002 to 0.099 nM.
Take `COC(=O)N[C@H](C(=O)N1CC(F)(F)C[C@H]1c1ncc(-c2ccc(C#Cc3ccc(-c4cnc([C@@H]5CC(F)(F)CN5C(=O)[C@H](NC(=O)OC)C5CCOCC5)[nH]4)cc3)cc2)[nH]1)C1CCOCC1` [Example N3, methyl ((1R)-2-((2S)-2-(5-(4-((4-(2-((2S)-4,4-difluoro-1-((2S)-2-((methoxycarbonyl)amino)-2-(tetrahydro-2H-pyran-4-yl)acetyl)pyrrolidin-2-yl)-1H-imidazol-5-yl)phenyl)ethynyl)phenyl)-1H-imidazol-2-yl)-4,4-difluoropyrrolidin-1-yl)-2-oxo-1-(tetrahydro-2H-pyran-4-yl)ethyl)carbamate]: the concentration for a half-maximal effect (EC50) lay in the range of 10 to 350 nM.
On to `CN(C)[C@@H](C(=O)N1CCC[C@H]1c1ncc(-c2ccc(COCc3cccc(-c4cnc([C@@H]5CCCN5C(=O)[C@@H](c5ccccc5)N(C)C)[nH]4)c3)cc2)[nH]1)c1ccccc1` [OL-20, (1R)-2-((2S)-2-(4-(3-(((4-(2-((2S)-1-((2R)-2-(dimethylamino)-2-phenylacetyl)-2-pyrrolidinyl)-1H-imidazol-4-yl)benzyl)oxy)methyl)phenyl)-1H-imidazol-2-yl)-1-pyrrolidinyl)-N,N-dimethyl-2-oxo-1-phenylethanamine], for which the half-maximal effective concentration (EC50) lay in the range of 0.1 to 0.99 nM.
Regarding `COC(=O)N[C@H](C(=O)N1[C@@H]2C[C@@H]2C[C@H]1c1ncc(-c2ccc([C@H]3C[C@@H]3c3ccc(-c4cnc([C@@H]5C[C@H]6C[C@H]6N5C(=O)[C@@H](NC(=O)OC)C5CCOCC5)[nH]4)cc3)cc2)[nH]1)C1CCOCC1` [Example M9.4, dimethyl ((1S,2S)-1,2-cyclopropanediylbis(4,1-phenylene-1H-imidazole-4,2-diyl(1R,3S,5R)-2-azabicyclo[3.1.0]hexane-3,2-diyl((1S)-2-oxo-1-(tetrahydro-2H-pyran-4-yl)-2,1-ethanediyl)))biscarbamate], the concentration for a half-maximal effect (EC50) lay within 0.002 to 0.099 nM.
On the same count and under the same terms, as for `COC(=O)N[C@H](C(=O)N1CCC[C@H]1c1nc(-c2cccc(C#Cc3cccc(-c4c[nH]c([C@@H]5CCCN5C(=O)[C@@H](NC(=O)OC)C(C)C)n4)c3)c2)c[nH]1)C(C)C` [Example J1, methyl ((1S)-1-(((2S)-2-(4-(3-((3-(2-((2S)-1-((2S)-2-((methoxycarbonyl)amino)-3-methylbutanoyl)-2-pyrrolidinyl)-1H-imidazol-4-yl)phenyl)ethynyl)phenyl)-1H-imidazol-2-yl)-1-pyrrolidinyl)carbonyl)-2-methylpropyl)carbamate], the figure is 0.002 to 0.099 nM; as for `COC(=O)N[C@H](C(=O)N1[C@H]2C[C@@]2(C)C[C@H]1c1ncc(-c2ccc(C#Cc3ccc(-c4cnc([C@@H]5C[C@]6(C)C[C@@H]6N5C(=O)[C@@H](NC(=O)OC)C(C)C)[nH]4)cc3)cc2)[nH]1)C(C)C` [Example M12.9, methyl ((1S)-1-(((1S,3S,5S)-3-(4-(4-((4-(2-((1S,3S,5S)-2-((2S)-2-((methoxycarbonyl)amino)-3-methylbutanoyl)-5-methyl-2-azabicyclo[3.1.0]hex-3-yl)-1H-imidazol-4-yl)phenyl)ethynyl)phenyl)-1H-imidazol-2-yl)-5-methyl-2-azabicyclo[3.1.0]hex-2-yl)carbonyl)-2-methylpropyl)carbamate], 0.002 to 0.099 nM; as for `COC(=O)N[C@@H](C(=O)N1CC(F)(F)C[C@H]1c1ncc(-c2ccc(C#Cc3ccc(-c4cnc([C@@H]5CC(F)(F)CN5C(=O)[C@H](NC(=O)OC)C5CCOCC5)[nH]4)cc3)cc2)[nH]1)C1CCOCC1` [Example N4, dimethyl (ethyne-1,2-diylbis(4,1-phenylene-1H-imidazole-5,2-diyl((2S)-4,4-difluoropyrrolidine-2,1-diyl)((1R)-2-oxo-1-(tetrahydro-2H-pyran-4-yl)ethane-2,1-diyl)))biscarbamate], 10 to 350 nM.
Turning to `CNC(=O)N[C@@H](C(=O)N1CCC[C@H]1c1nc(-c2ccc(COCc3cccc(-c4c[nH]c([C@@H]5CCCN5C(=O)[C@H](NC(=O)NC)c5ccccc5)n4)c3)cc2)c[nH]1)c1ccccc1` [OL-23, 1-methyl-3-((1R)-2-((2S)-2-(4-(3-(((4-(2-((2S)-1-((2R)-2-((methylcarbamoyl)amino)-2-phenylacetyl)-2-pyrrolidinyl)-1H-imidazol-4-yl)benzyl)oxy)methyl)phenyl)-1H-imidazol-2-yl)-1-pyrrolidinyl)-2-oxo-1-phenylethyl)urea], the EC50 lay in the range of 0.1 to 0.99 nM.
With `COC(=O)N[C@H](C(=O)N1CCC[C@H]1c1ncc(-c2ccc(C#Cc3ccc4c(ccc5nc([C@@H]6CCCN6C(=O)[C@@H](NC(=O)OC)C(C)C)[nH]c54)c3)cc2)[nH]1)C(C)C` [Example D-6, methyl ((1S)-1-(((2S)-2-(4-(4-((2-((2S)-1-((2S)-2-((methoxycarbonyl)amino)-3-methylbutanoyl)-2-pyrrolidinyl)-1H-naphtho[1,2-d]imidazol-7-yl)ethynyl)phenyl)-1H-imidazol-2-yl)-1-pyrrolidinyl)carbonyl)-2-methylpropyl)carbamate], the EC50 was 0.002 to 0.099 nM.
As for `O=C([C@H](O)c1ccccc1)N1CCC[C@H]1c1nc(-c2ccc(COCc3ccc(-c4cnc([C@@H]5CCCN5C(=O)[C@H](O)c5ccccc5)[nH]4)cc3)cc2)c[nH]1` [OL-15, (1R)-2-((2S)-2-(4-(4-(((4-(2-((2S)-1-((2R)-2-hydroxy-2-phenylacetyl)-2-pyrrolidinyl)-1H-imidazol-5-yl)benzyl)oxy)methyl)phenyl)-1H-imidazol-2-yl)-1-pyrrolidinyl)-2-oxo-1-phenylethanol], the EC50 fell in the range of 1 to 9.9 nM.
Still for that read-out and setting: as for `COC(=O)N[C@H](C(=O)N1C[C@@H](O)C[C@H]1c1ncc(-c2ccc(C#Cc3ccc(-c4cnc([C@@H]5C[C@H](O)CN5C(=O)[C@@H](NC(=O)OC)C(C)C)[nH]4)cc3)cc2)[nH]1)C(C)C` [Example N7, methyl ((1S)-1-(((2S,4S)-4-hydroxy-2-(4-(4-((4-(2-((2S,4S)-4-hydroxy-1-((2S)-2-((methoxycarbonyl)amino)-3-methylbutanoyl)-2-pyrrolidinyl)-1H-imidazol-4-yl)phenyl)ethynyl)phenyl)-1H-imidazol-2-yl)-1-pyrrolidinyl)carbonyl)-2-methylpropyl)carbamate], the figure is 0.002 to 0.099 nM; as for `COC(=O)N[C@@H](C(=O)N1CCC[C@H]1c1nc(-c2ccc(COCc3ccc(-c4c[nH]c([C@@H]5CCCN5C(=O)[C@H](NC(=O)OC)c5ccccc5)n4)cc3)cc2)c[nH]1)c1ccccc1` [OL-16, dimethyl (oxybis(methylene-4,1-phenylene-1H-imidazole-4,2-diyl(2S)-2,1-pyrrolidinediyl((1R)-2-oxo-1-phenyl-2,1-ethanediyl)))biscarbamate], 0.002 to 0.099 nM.

Values taken from patent publication US8796466B2, “Hepatitis C virus inhibitors” (Bristol-Myers Squibb Company, priority 2009, dated 2014).
